Patent US20230042936A1, “PYRIDO[2,3-d]PYRIMIDIN-7(8H)-ONES AS CDK INHIBITORS” (PROSENESTAR LLC, priority 2020, published 2023)
“Also recorded” adds a separate entry of the source. Like-named read-outs stand apart in the source and are kept apart here.

What was measured:
MDA-MB-231 cells = assay: Senescence assay (β-Galactosidase staining); assay type: cell-based, human; conditions: at GI50; 3 days or 14 days exposure; FIGS. 2 and 3
Experimental: MDA-MB-231 cells were seeded in 6-well plates (65,000 cells/well) and treated with the selected compounds at their respective GI50. At 3, 7 and 14 days after treatment cells were stained with Senescence β-Galactosidase Staining Kit (Cell Signaling) at 37° C. overnight. Blue coloured senescent cells were counted with an optical microscope. Medium and compounds were refreshed every 3 days.
Cell cycle arrest can be irreversible in case of senescence induction.

[1] = Thermodynamic solubility (pH 7.4); assay type: physicochemical; conditions: pH 7.4, aqueous buffer, thermodynamic from solid
[2] = Metabolic stability in hepatocytes; assay type: in vitro ADME; conditions: human, 60-90 min test; for hepatocyte CLint: read-out: Metabolic stability, Human hepatocytes: Clearance; for half-life: read-out: Metabolic stability, Human hepatocytes: t1/2
[3] = Metabolic stability in hepatocytes; assay type: in vitro ADME; conditions: mouse, 60-90 min test; for hepatocyte CLint: read-out: Metabolic stability, Mouse heptocytes: Clearance; for half-life: read-out: Metabolic stability, Mouse heptocytes: t1/2
Cdk2/4/6_KO MEFs = assay: Cell growth in Cdk-deficient MEFs; assay type: cell-based, mouse; conditions: relative cell count day 6 versus day 3; FIG. 4
Experimental: (§1) Cdk-deficient MEFs were plated in 10-cm dish in triplicate (100,000/well) and treated with the selected compounds at the indicated concentration, based on GI50 previously determined in the MDA-MB-231 cell line. Cells were counted in an optical microscope 3 and 6 days after treatment to estimate the relative cell growth in each condition.
(§2) To further investigate the relative functional dependence of the subject compounds on CDK2 versus CDK4 or CDK6, the specific effects of PS004, PS006 and PS009 were tested on CDK-deficient mouse embryonic fibroblasts (MEFs) obtained from Cdk2 knock out, Cdk4; Cdk6-double knock out and Cdk2; Cdk4; Cdk6-triple knock out mouse models.

Cdk4/6_KO MEFs = assay: Cell growth in Cdk-deficient MEFs; assay type: cell-based, mouse; conditions: relative cell count day 6 versus day 3; FIG. 4
Experimental: as §1, §2

[4] = tested on: pRB-wild-type and pRB-deficient glioblastoma cells (U87MG, SW1783); assay: GI50 compared in pRB-wild-type and pRB-deficient cells; assay type: cell-based, human; conditions: comparison of GI50, Table 4
Experimental: (§3) […]. Cell counts were determined by the Opera software (Perkin Elmer) and data were further processed with SPSS software. GI50 was calculated by estimating the absolute IC50 using dose-response inhibition tool in Prism6 (Graphpad Software Inc.).
(§4) CDK4/6 kinases drive cell cycle progression by phosphorylating the retinoblastoma protein (pRB), thus, releasing its repressive activity on transcription. Accordingly, CDK4/6 specific inhibitors are inefficient in pRB-deficient cells, as cell cycle transcription is induced with independence of CDK4/6 activity. The subject compounds were therefore evaluated to what extent depend on the presence of a functional pRB. Two pairs of human cancer cell lines representing pRB-wild-type and pRB-deficient breast cancer and glioblastoma were tested. […].

phospho RB1 Ser807/811 = assay: In vivo target engagement (phospho-RB staining of tissues); set-up: species or system mice; conditions: FIG. 7
Excerpt: FIG. 7 depicts the effect of PS004, PS006 and PS009 on the phosphorylation of the retinoblastoma protein in different tissues using antibodies against phospho RB1 Ser807/811. Micrographs are representative from three different mice per treatment.
(§5) For histological analysis, mice tissues and human xenografts were fixed in 10%-buffered formalin (Sigma) and embedded in paraffin wax. Sections of 3- or 5-μm thickness were stained with haematoxylin and eosin. Additional immunohistochemical examination was performed using a specific antibody against phospho-Rb (Ser807/811; Cell Signaling) or Ki67 (DAKO).
For in vivo evaluation, the target engagement for the subject compounds in vivo was tested first.

[5] = tested on: MDA-MB-231-derived xenografts; assay: Tumor xenografts; assay type: in vivo, Athymic nude mice; conditions: 100 mg/Kg intraperitoneally twice per week, two weeks; for phospho-RB levels in the xenografts: FIG. 9A; for tumor weight / tumor growth: vs DMSO; for tumor weight: FIG. 8A; for tumor growth: FIG. 8B
Experimental: as §5
DMSO, PS004, PS006 and PS009 were diluted in sesame oil and administered intraperitoneally twice per week during two weeks at 100 mg/Kg. […] Tumor growth was monitored using caliper measurements and tumor size was estimated using the following formula: Tumor volume (mm^3)=d^2·D/2 where d and D, are the shortest and longest diameter in mm, respectively. After completing the treatment, mice were sacrificed and tumors were extracted, weighed, and fixed for histological analysis.
The therapeutic effect of the subject compounds was then tested by treating mice previously injected subcutaneously with MDA-MB-231 breast cancer cells. […] The dose amount of 100 mg/kg dosage in these cases was administered at a frequency of two injections per week for the total of two weeks of treatment.

[6] = Toxicologic evaluation in vivo; conditions: 50 or 100 mg/kg intraperitoneally twice a week for two weeks; for blood counts (white blood cells, lymphocytes) / mouse weight: FIG. 10; for lung toxicity (hemorrhage in the lungs), mice affected: FIG. 11; for mouse weight: vs DMSO
[7] = tested on: pRB-wild-type and pRB-deficient breast cancer cells (MDA-MB-231, MDA-MB-468); assay: GI50 compared in pRB-wild-type and pRB-deficient cells; assay type: cell-based, human; conditions: comparison of GI50, Table 4
Experimental: as §3, §4

[8] = tested on: luminal-like (ZR75-1, T47D, MCF7) and non-luminal (HCC1143, MDA-MB-231, BT549, MDA-MB-468) breast cancer cell lines; assay: Relative cell growth in a panel of breast cancer cell lines (6 days); assay type: cell-based, human; conditions: 6 days at GI50 dose (determined in MDA-MB-231); FIG. 5
Experimental: Data are mean±s.e.m. (3 technical replicates).
Relative cell proliferation was calculated by counting cell number at day 6 in treated cells versus cells treated with vehicle (DMSO).

[9] = tested on: pRB phosphorylation and cell cycle markers in MDA-MB-231 and MDA-MB-468 cells; assay: Immunoblotting of cell cycle markers; assay type: cell-based, human; conditions: GI50 dose, 48 hours; FIG. 6
Experimental: MDA-MB-231 and MDA-MB-468 cells were treated with the indicated compounds using the G150 corresponding to the MDA-MB-231 cell line, and 48 hours later lysed in Laemmli buffer (60 mM Tris-Cl pH 6.8, 10% Glycerol, 2% SDS). Protein concentration was determined using BCA method (Pierce).

Row | SMILES | SA-βGAL staining (senescence induction) (MDA-MB-231 cells) | solubility thermodynamic [1] | hepatocyte CLint [2] | half-life [2] | hepatocyte CLint [3] | half-life [3] | cell proliferation of Cdk2; Cdk4; Cdk6-triple knock out MEFs (Cdk2/4/6_KO MEFs) | cell proliferation of Cdk4; Cdk6-double knock out MEFs (Cdk4/6_KO MEFs) | efficiency in pRB-deficient versus pRB-wild-type glioblastoma cells [4] | phospho-RB staining in bone marrow, intestine and spleen (phospho RB1 Ser807/811) | phospho-RB levels in the xenografts [5] | tumor weight [5] | tumor growth [5] | histopathology of the bone marrow [6] | histopathology of the intestine [6] | histopathology of the spleen [6] | blood counts (white blood cells, lymphocytes) [6] | lung toxicity (hemorrhage in the lungs), mice affected [6] | mouse weight [6] | efficiency in pRB-null versus pRB-wild-type breast cancer cells [7] | other results
1 | CC(=O)c1c(C)c2cnc(Nc3ccc(N4CCC(CCCO)CC4)cc3)nc2n([C@@H]2CC3CCC2C3)c1=O (stereo partly drawn) [PS008, 6-acetyl-8-((2R)-bicyclo[2.2.1]heptan-2-yl)-2-((4-(4-(3-hydroxypropyl)piperidin-1-yl)phenyl)amino)-5-methylpyrido[2,3-d]pyrimidin-7(8H)-one] | induced high levels of SA-βGAL staining |  |  |  |  |  |  |  |  |  |  |  |  |  |  |  |  |  |  |  | 
2 | CC(O)CCC1CCN(c2ccc(Nc3ncc4ccc(=O)n([C@@H]5CC6CCC5C6)c4n3)cc2)CC1 (stereo partly drawn) [PS004, 8-((2R)-bicyclo[2.2.1]heptan-2-yl)-2-((4-(4-(3-hydroxybutyl)piperidin-1-yl)phenyl)amino)pyrido[2,3-d]pyrimidin-7(8H)-one] |  | < 2 µM | < 6.4 µL/min/1e6 cells | > 217 min | 9.7 µL/min/1e6 cells | 143 min | efficient in preventing cell proliferation | efficient in preventing cell proliferation | more inefficient | evident RB target inhibition | reduction of phospho-Rb phosphorylation which however did not reach statistical significance | significantly reduced | significantly reduced | hypoplasia/reactive bone marrow | aberrant mitotic figures | active extramedullar hematopoiesis | reduced lymphocyte counts | 4 out of 6 |  |  | Ki67 levels in the xenografts ([5]; FIG. 9B): slightly diminished
3 | O=c1ccc2cnc(Nc3ccc(N4CCC(CCCO)CC4)cc3)nc2n1C1CC2CCC1C2 (stereo not shown) [PD-0183812, reference compound] | induced high levels of SA-βGAL staining |  |  |  |  |  |  |  |  |  |  |  |  | hypoplasia/reactive bone marrow | aberrant mitotic figures | active extramedullar hematopoiesis |  | 6 out of 6 | induced significant weight loss |  | 
4 | CC(=O)c1c(C)c2cnc(Nc3ccc(N4CCC(CCCO)CC4)cc3)nc2n(C2CCCC2)c1=O [PS009, 6-acetyl-8-cyclopentyl-2-((4-(4-(3-hydroxypropyl)piperidin-1-yl)phenyl)amino)-5-methylpyrido[2,3-d]pyrimidin-7(8H)-one] | induced high levels of SA-βGAL staining; also recorded: very high SA-BGAL activity induction | < 2 µM | 41.7 µL/min/1e6 cells | 33.3 min | 67.8 µL/min/1e6 cells | 20.4 min | efficient in preventing cell proliferation | efficient in preventing cell proliferation | equally efficient | evident RB target inhibition | reduction of phospho-Rb phosphorylation which however did not reach statistical significance | did not exert any antitumoral effect | did not exert any antitumoral effect |  |  |  | no defects in blood counts | 1 out of 6 | induced weight loss | equally efficient | relative cell growth, luminal-like and non-luminal breast cancer cell lines [8]: efficient in both pRB-wild-type and mutant cell lines; also recorded: efficiently inhibit both luminal and non-luminal breast cancer cells; also recorded: able to inhibit proliferation in non-luminal, pRB-mutant breast cancer cells lines; levels of cell cycle markers [9]: reduced levels of most cell cycle markers; pRB phosphorylation [9]: strong inhibition
5 | O=c1ccc2cnc(Nc3ccc(N4CCC(CCCO)CC4)c(F)c3)nc2n1[C@@H]1CC2CCC1C2 (stereo partly drawn) [PS003, 8-((2R)-bicyclo[2.2.1]heptan-2-yl)-2-((3-fluoro-4-(4-(3-hydroxypropyl)piperidin-1-yl)phenyl)amino)pyrido[2,3-d]pyrimidin-7(8H)-one] | induced high levels of SA-βGAL staining |  |  |  |  |  |  |  |  |  |  |  |  |  |  |  |  |  |  |  | 
6 | CC(O)COC1CCN(c2ccc(Nc3ncc4ccc(=O)n([C@@H]5CC6CCC5C6)c4n3)cc2)CC1 (stereo partly drawn) [PS006, 8-((2R)-bicyclo[2.2.1]heptan-2-yl)-2-((4-(4-(2-hydroxypropoxy)piperidin-1-yl)phenyl)amino)pyrido[2,3-d]pyrimidin-7(8H)-one] | induced high levels of SA-βGAL staining; also recorded: induced high senescence | < 2 µM | 49 µL/min/1e6 cells | 28.3 min | 75.7 µL/min/1e6 cells | 18.3 min | efficient in preventing cell proliferation | efficient in preventing cell proliferation | equally efficient |  | significantly reduced | did not exert any antitumoral effect | did not exert any antitumoral effect |  |  | active extramedullar hematopoiesis |  | 1 out of 6 |  | equally efficient | 
